Legend:
Format in all cases: in vivo
[1] = test system: Surinam grass (Brachiaria decumbens); assay: Test B postemergence
How it was run: (§1)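 Visual injury scores, 0 = no effect to 100 = complete control, assigned against controls after 13 to 15 days in the greenhouse. Compounds formulated in non-phytotoxic solvent plus surfactant and applied to soil after planting (pre) or onto foliage of 1- to 4-leaf plants (post).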

[2] = test system: barnyardgrass (Echinochloa crus-galli); assay: Test B postemergence
How it was run: as §1

[3] = test system: blackgrass (Alopecurus myosuroides); assay: Test B postemergence
How it was run: as §1

[4] = test system: cocklebur (Xanthium strumarium); assay: Test B postemergence
How it was run: as §1

[5] = test system: crabgrass (Digitaria sanguinalis); assay: Test B postemergence
How it was run: as §1

[6] = test system: lambsquarters (Chenopodium album); assay: Test B postemergence
How it was run: as §1

[7] = test system: morning glory (Ipomoea hederacea); assay: Test B postemergence
How it was run: as §1

[8] = test system: pigweed (Amaranthus retroflexus); assay: Test B postemergence
How it was run: as §1

wild oat (Avena fatua) = assay: Test B postemergence
How it was run: as §1

[9] = test system: Surinam grass (Brachiaria decumbens); assay: Test B preemergence
How it was run: as §1

[10] = test system: barnyardgrass (Echinochloa crus-galli); assay: Test B preemergence
How it was run: as §1

[11] = test system: cocklebur (Xanthium strumarium); assay: Test B preemergence
How it was run: as §1

corn (Zea mays) = assay: Test B preemergence
How it was run: as §1

[12] = test system: crabgrass (Digitaria sanguinalis); assay: Test B preemergence
How it was run: as §1

[13] = test system: giant foxtail (Setaria faberii); assay: Test B preemergence
How it was run: as §1

[14] = test system: lambsquarters (Chenopodium album); assay: Test B preemergence
How it was run: as §1

[15] = test system: morning glory (Ipomoea hederacea); assay: Test B preemergence
How it was run: as §1

[16] = test system: pigweed (Amaranthus retroflexus); assay: Test B preemergence
How it was run: as §1

rice (Oryza saliva) [17] = assay: Test B preemergence
How it was run: as §1

[18] = test system: velvetleaf (Abutilon theophrasti); assay: Test B preemergence
How it was run: as §1

[19] = test system: barnyardgrass (Echinochloa crus-galli); assay: Test C flooded paddy test; details: for Barnyardgrass plant response rating: Flooded Paddy, Rate 500 g/ha, scale 0 to 100, 0 no effect, 100 complete control; for Plant response rating, Barnyardgrass / Plant response rating (scale 0 to 100), Barnyardgrass: flooded paddy test; for Plant response rating, Barnyardgrass: scale 0 to 100 (0 no effect, 100 complete control); for Plant response rating (scale 0 to 100), Barnyardgrass: Rate 62 g/ha, visually evaluated after 12 to 14 days, 0 = no effect, 100 = complete control
How it was run: (§2)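 Visually assessed vs untreated controls 12–14 d post-treatment (greenhouse). Flooded paddy plants were at the 2-leaf stage; scale 0 = no effect, 100 = complete control.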

[20] = test system: duck salad (Heteranthera limosa); assay: Test C flooded paddy test; details: for Ducksalad plant response rating: Flooded Paddy, Rate 500 g/ha, scale 0 to 100, 0 no effect, 100 complete control; for Plant response rating, Ducksalad / Plant response rating (scale 0 to 100), Ducksalad: flooded paddy test; for Plant response rating, Ducksalad: scale 0 to 100 (0 no effect, 100 complete control); for Plant response rating (scale 0 to 100), Ducksalad: Rate 62 g/ha, visually evaluated after 12 to 14 days, 0 = no effect, 100 = complete control
How it was run: as §2

rice (Oryza saliva) [21] = assay: Test C flooded paddy test; details: for Rice plant response rating: Flooded Paddy, Rate 500 g/ha, scale 0 to 100, 0 no effect, 100 complete control; for Plant response rating, Rice / Plant response rating (scale 0 to 100), Rice: flooded paddy test; for Plant response rating, Rice: scale 0 to 100 (0 no effect, 100 complete control); for Plant response rating (scale 0 to 100), Rice: Rate 62 g/ha, visually evaluated after 12 to 14 days, 0 = no effect, 100 = complete control
How it was run: as §2

[22] = test system: smallflower flatsedge (Cyperus difformis); assay: Test C flooded paddy test; details: for Flatsedge plant response rating: Flooded Paddy, Rate 500 g/ha, scale 0 to 100, 0 no effect, 100 complete control; for Plant response rating, Flatsedge / Plant response rating (scale 0 to 100), Flatsedge: flooded paddy test; for Plant response rating, Flatsedge: scale 0 to 100 (0 no effect, 100 complete control); for Plant response rating (scale 0 to 100), Flatsedge: Rate 62 g/ha, visually evaluated after 12 to 14 days, 0 = no effect, 100 = complete control
How it was run: as §2

Nightshade = assay: Test C preemergence; details: Rate 500 g/ha, visual evaluation after 12 to 14 days
Sunflower = assay: Test C preemergence; details: Rate 250 g/ha, scale 0 to 100, 0 no effect, 100 complete control
[23] = Rate 125 g/ha, scale 0 to 100, 0 no effect, 100 complete control
[24] = Rate 500 g/ha, scale 0 (no effect) to 100 (complete control), 13 to 15 days
[25] = Preemergence, Rate 500 g/ha, scale 0 to 100, 0 no effect, 100 complete control
[26] = preemergence, Rate 125 g/ha, scale of 0 to 100 where 0 is no effect and 100 is complete control, 13 to 15 days

Structure (SMILES): CCC(CC)c1ccn(C2CCN(c3ccc(F)c(C(F)(F)F)c3)C2=O)n1 (centres unmarked) [Compound 144]
- Plant response rating, Surinam grass [1, 23]: 0
- Plant response rating, Surinam grass [1, 24]: 0
- Plant response rating, Barnyardgrass [2, 23]: 0
- Plant response rating, Barnyardgrass [2, 24]: 0
- Plant response rating, Blackgrass [3, 23]: 0
- Plant response rating, Blackgrass [3, 24]: 0
- Plant response rating, Cocklebur [4, 23]: 0
- Plant response rating, Cocklebur [4, 24]: 30
- Plant response rating, Crabgrass [5, 23]: 0
- Plant response rating, Crabgrass [5, 24]: 40
- Plant response rating, Lambsquarters [6, 23]: 100
- Plant response rating, Lambsquarters [6, 24]: 100
- Plant response rating, Morningglory [7, 23]: 0
- Plant response rating, Morningglory [7, 24]: 30
- Plant response rating, Pigweed [8, 23]: 50
- Plant response rating, Pigweed [8, 24]: 100
- Plant response rating, Wild Oat (wild oat (Avena fatua); [23]): 0
- Plant response rating, Wild Oat (wild oat (Avena fatua); [24]): 0
- Plant response rating, Surinam grass [9, 25]: 70
- Plant response rating, Surinam grass [9, 26]: 0
- Plant response rating, Barnyardgrass [10, 25]: 100
- Plant response rating, Barnyardgrass [10, 26]: 80
- Plant response rating, Cocklebur [11, 25]: 0
- Plant response rating, Cocklebur [11, 26]: 0
- Plant response rating, Corn (corn (Zea mays); [25]): 20
- Plant response rating, Corn (corn (Zea mays); [26]): 0
- Plant response rating, Crabgrass [12, 25]: 100
- Plant response rating, Crabgrass [12, 26]: 100
- Plant response rating, Foxtail, Giant [13, 25]: 100
- Plant response rating, Foxtail, Giant [13, 26]: 100
- Plant response rating, Lambsquarters [14, 25]: 100
- Plant response rating, Lambsquarters [14, 26]: 100
- Plant response rating, Morningglory [15, 25]: 0
- Plant response rating, Morningglory [15, 26]: 0
- Plant response rating, Pigweed [16, 25]: 100
- Plant response rating, Pigweed [16, 26]: 100
- Plant response rating, Rice (rice (Oryza saliva) [17]; [25]): 0
- Plant response rating, Rice (rice (Oryza saliva) [17]; [26]): 0
- Plant response rating, Velvetleaf [18, 25]: 0
- Plant response rating, Velvetleaf [18, 26]: 0
- Barnyardgrass plant response rating [19]: 100
- Plant response rating, Barnyardgrass ([19]; Rate 125 g/ha): 100
- Plant response rating, Barnyardgrass ([19]; Rate 250 g/ha): 100
- Plant response rating (scale 0 to 100), Barnyardgrass [19]: 100
- Ducksalad plant response rating [20]: 100
- Plant response rating, Ducksalad ([20]; Rate 125 g/ha): 50
- Plant response rating, Ducksalad ([20]; Rate 250 g/ha): 95
- Plant response rating (scale 0 to 100), Ducksalad [20]: 50
- Rice plant response rating (rice (Oryza saliva) [21]): 75
- Plant response rating, Rice (rice (Oryza saliva) [21]; Rate 125 g/ha): 20
- Plant response rating, Rice (rice (Oryza saliva) [21]; Rate 250 g/ha): 45
- Plant response rating (scale 0 to 100), Rice (rice (Oryza saliva) [21]): 20
- Flatsedge plant response rating [22]: 95
- Plant response rating, Flatsedge ([22]; Rate 125 g/ha): 85
- Plant response rating, Flatsedge ([22]; Rate 250 g/ha): 95
- Plant response rating (scale 0 to 100), Flatsedge [22]: 85
- Plant response rating (0 to 100), Nightshade (Nightshade): 100
- Plant response rating, Sunflower (Sunflower): 40

Structure (SMILES): CCC(C)c1ccn(C2CCN(c3ccc(F)c(C(F)(F)F)c3)C2=O)n1 (centres unmarked) [Compound 145]
- Plant response rating, Surinam grass [1, 23]: 0
- Plant response rating, Surinam grass [1, 24]: 0
- Plant response rating, Barnyardgrass [2, 23]: 0
- Plant response rating, Barnyardgrass [2, 24]: 90
- Plant response rating, Blackgrass [3, 23]: 0
- Plant response rating, Blackgrass [3, 24]: 0
- Plant response rating, Cocklebur [4, 23]: 0
- Plant response rating, Cocklebur [4, 24]: 0
- Plant response rating, Crabgrass [5, 23]: 0
- Plant response rating, Crabgrass [5, 24]: 0
- Plant response rating, Lambsquarters [6, 23]: 80
- Plant response rating, Lambsquarters [6, 24]: 100
- Plant response rating, Morningglory [7, 23]: 0
- Plant response rating, Morningglory [7, 24]: 0
- Plant response rating, Pigweed [8, 23]: 0
- Plant response rating, Pigweed [8, 24]: 80
- Plant response rating, Wild Oat (wild oat (Avena fatua); [23]): 0
- Plant response rating, Wild Oat (wild oat (Avena fatua); [24]): 0
- Plant response rating, Surinam grass [9, 25]: 60
- Plant response rating, Surinam grass [9, 26]: 0
- Plant response rating, Barnyardgrass [10, 25]: 100
- Plant response rating, Barnyardgrass [10, 26]: 70
- Plant response rating, Cocklebur [11, 25]: 0
- Plant response rating, Cocklebur [11, 26]: 0
- Plant response rating, Corn (corn (Zea mays); [25]): 0
- Plant response rating, Corn (corn (Zea mays); [26]): 0
- Plant response rating, Crabgrass [12, 25]: 100
- Plant response rating, Crabgrass [12, 26]: 100
- Plant response rating, Foxtail, Giant [13, 25]: 100
- Plant response rating, Foxtail, Giant [13, 26]: 100
- Plant response rating, Lambsquarters [14, 25]: 100
- Plant response rating, Lambsquarters [14, 26]: 100
- Plant response rating, Morningglory [15, 25]: 0
- Plant response rating, Morningglory [15, 26]: 0
- Plant response rating, Pigweed [16, 25]: 100
- Plant response rating, Pigweed [16, 26]: 100
- Plant response rating, Rice (rice (Oryza saliva) [17]; [25]): 80
- Plant response rating, Rice (rice (Oryza saliva) [17]; [26]): 0
- Plant response rating, Velvetleaf [18, 25]: 0
- Plant response rating, Velvetleaf [18, 26]: 0
- Barnyardgrass plant response rating [19]: 100
- Plant response rating, Barnyardgrass ([19]; Rate 125 g/ha): 65
- Plant response rating, Barnyardgrass ([19]; Rate 250 g/ha): 85
- Plant response rating (scale 0 to 100), Barnyardgrass [19]: 30
- Ducksalad plant response rating [20]: 80
- Plant response rating, Ducksalad ([20]; Rate 125 g/ha): 25
- Plant response rating, Ducksalad ([20]; Rate 250 g/ha): 80
- Plant response rating (scale 0 to 100), Ducksalad [20]: 20
- Rice plant response rating (rice (Oryza saliva) [21]): 60
- Plant response rating, Rice (rice (Oryza saliva) [21]; Rate 125 g/ha): 0
- Plant response rating, Rice (rice (Oryza saliva) [21]; Rate 250 g/ha): 20
- Plant response rating (scale 0 to 100), Rice (rice (Oryza saliva) [21]): 0
- Flatsedge plant response rating [22]: 95
- Plant response rating, Flatsedge ([22]; Rate 125 g/ha): 80
- Plant response rating, Flatsedge ([22]; Rate 250 g/ha): 95
- Plant response rating (scale 0 to 100), Flatsedge [22]: 40
- Plant response rating (0 to 100), Nightshade (Nightshade): 90
- Plant response rating, Sunflower (Sunflower): 50

From US7138361B2, “Herbicidal heterocycles” (E. I. du Pont de Nemours and Company, priority 2000, dated 2006)
